Entries after “also recorded” stand apart in the source; their conditions may differ. Read-outs that look alike come from different tables or passages of the source.
Legend:
[1] = system: HIV envelope gp120/41-induced syncytia formation in CD4+T cell lines (HIVenv 2-8 co-culture); assay: Inhibition of HIVenv 2-8-induced syncytia formation / cell death (HIV-1 co-culture assay); assay type: cell-based; conditions: for Estimated IC50 (Syncitia Quantification), inhibition of HIV-induced cytopathicity: Table 1
Protocol: Sourcing of Ah Receptor Ligands: The Ah receptor ligands 2,3,7,8-Tetrachlorodibenzo-p-dioxin, 3,3',4,4',5-Pentachlorobiphenyl, 3,3',4,'4-Tetrachlorobiphenyl, and 2-Monochlorodibenzo-p-dioxin compounds were purchased from Accustandard (Cambridge, Mass.). α-naphthoflavone was purchased from Sigma (St. Louis, Mo.). Stock solutions of each compound were prepared by dissolution in DMSO at a 1000X concentration, i.e. the highest concentration tested was diluted by 1000-fold.
Bioassay Procedure: The cell lines utilized in the assay protocol include the following: HIVenv 2-2 (non-cytopathic), HIVenv 2-8 (cytopathic), Jurkat CD4+T cell line (clone E6-1), and SupT1. Cell lines were cultured in RPMI medium (Gibco, Grand Island, N.Y.) supplemented with L-glutamine (Sigma, St. Louis, Mo.) and 10% FBS-HI (Intergen). The Jurkat CD4+T cell line was obtained from American Type Culture Collection (Bethesda, Md.). All other cell lines were obtained from the National Institutes of Health. The HIVenv 2-2 or HIVenv 2-8 cells were plated with both CD4+T cell lines (1×10^3 cells per cell line in 16 μL of media.) in a 96-well tissue culture plate containing 50 μL of media with compound to be tested yielding a final volume of approximately 100 μL. The plates were then gently shaken to ensure adequate mixing of the assay components. Cells were then co-cultured at 5% CO2, 37C., and 95% humidity for 24 to 48 hours. The time points were chosen for the convenience, cytopathic changes become evident in the cell cultures used within a 2 to 4 hour period, becoming more and more prominent with time.
Data Reduction for this ELISA: HIVenv 2-2 co-culture ELISA values are used as the background for HIVenv 2-8 co-culture values. Dose responses are then plotted with dose along the x-axis and the background corrected optical density values on the y-axis.
Positive and Negative Controls: The use of the HIVenv 2-2 cell line serves as a negative control for induction of cytopathicity.
(§1) Interpretation of the Test: A positive response was defined as a dose-related decrease in syncytia formation in excess of 50% compared to HIVenv 2-8 co-cultures alone. Calculation of median effective doses was estimated by visual observation and by quantification of syncitia in 10X power microscope fields.
The Materials and Methods used in the testing of the various dibenzofuran compounds were the same as those used in Example 1 above. This includes the use of the same controls, cell lines, and assay procedures.
as §1, with “fields. Another procedure which provides data similar to the Bioassay procedure just described allows for quantification of changes in the co-culture cells through an ELISA method, not as reliant on visual observation. […]” for “fields.”

[2] = system: HIV; viruses; tumors; liver; conditions: cited from earlier work
Ah receptor [3] = biological target: T1, Ah receptor (Cavia porcellus, UniProt Q6J287); assay: Ah receptor transformation, agonist test (Ah-immunoassay, absence of TCDD); assay type: biochemical, Guinea pig; conditions: absence of TCDD
T1 sequence (Q6J287 1-846): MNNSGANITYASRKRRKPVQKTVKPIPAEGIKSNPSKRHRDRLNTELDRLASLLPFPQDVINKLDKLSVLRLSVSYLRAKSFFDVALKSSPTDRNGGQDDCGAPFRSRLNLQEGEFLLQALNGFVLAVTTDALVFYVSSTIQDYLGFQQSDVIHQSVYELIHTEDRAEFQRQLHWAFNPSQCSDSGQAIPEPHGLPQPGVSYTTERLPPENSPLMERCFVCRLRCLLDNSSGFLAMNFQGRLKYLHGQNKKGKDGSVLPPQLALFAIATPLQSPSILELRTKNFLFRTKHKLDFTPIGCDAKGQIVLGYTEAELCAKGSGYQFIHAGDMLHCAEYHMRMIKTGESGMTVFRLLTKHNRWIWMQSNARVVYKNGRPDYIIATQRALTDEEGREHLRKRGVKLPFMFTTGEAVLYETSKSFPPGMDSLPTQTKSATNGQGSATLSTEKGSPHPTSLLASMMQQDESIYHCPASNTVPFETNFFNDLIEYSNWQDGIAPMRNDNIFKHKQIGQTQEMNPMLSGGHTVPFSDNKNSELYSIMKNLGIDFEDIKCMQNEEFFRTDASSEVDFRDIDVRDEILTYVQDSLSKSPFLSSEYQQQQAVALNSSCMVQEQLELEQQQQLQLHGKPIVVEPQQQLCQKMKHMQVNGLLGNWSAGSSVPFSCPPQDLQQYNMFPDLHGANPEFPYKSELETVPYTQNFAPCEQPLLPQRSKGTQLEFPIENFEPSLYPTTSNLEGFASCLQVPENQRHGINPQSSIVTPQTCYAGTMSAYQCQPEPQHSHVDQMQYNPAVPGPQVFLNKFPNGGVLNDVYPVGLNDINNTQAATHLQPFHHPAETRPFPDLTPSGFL
Protocol: Cytosol was prepared as described above.
Diluent for TCDD dose response, diluent for extracts (detection of agonists), and negative control: The cytosol is treated with 1 μL DMSO per 1 mL cytosol (-).
1 nM TCDD treated, positive control. […] DMSO diluent for detection of agonists: the cytosol is treated with μL DMSO per 1 mL cytosol. (1 nm final concentration of TCDD).

Ah receptor [4] = biological target: T1, Ah receptor; assay: Inhibition of Ah receptor transformation, antagonist test (Ah-immunoassay, 0.5 nM TCDD); conditions: for Test as antagonist, Milli O.D at 405: 0.5 nM TCDD; for binding or interaction with the Ah receptor (words): with and without 0.5 nM TCDD
Protocol: Cytosol was prepared as described in methods and treated with TCDD, DMSO or TCM extract to make 1) 0.5 nM TCDD, 2) 0.1% DMSO, or 3) 500 μg/mL TCM extract, respectively. The treated cytosol was serially diluted in a neutravidin-coated ELISA plate (Pierce, Rockford, Ill.). […] To treat for Ah receptor agonist activity, extracts were diluted in 0.5 nM TCDD treated cytosol to 250, 125, and 62.5 μg/mL of TCM extracts.
Ten mL aliquots of cytosol were thawed and pooled, generally 20 mL per ELISA plate. For each 20 mL of cytosol, 10 μL of thawed DRE stock and 1 mL HEDG in 4M NaCl were added.
0.5 nM TCDD Diluent for extracts (detection of antagonists): The cytosol is treated with 1 μl of 1 μM TCDD per 2 mL cytosol (0.5 nm).
500 μg/mL extracts (detection of antagonists): 1 μL of test extract (500 mg/mL in DMSO) in 1 mL 0.5 nM TCDD-treated cytosol (500 μg/mL final concentration of extract in cytosol).
Serial dilution's of the extracts and/or TCDD treated cytosol into DMSO-treated cytosol are done as required by the experiment and are described in the examples.
The ELISA plate containing the treated cytosol is incubated with gentle rocking for 2 hours at 30° C. to allow the transformation of Ah receptor, binding of Ah receptor with ARNT, and binding of the Ah receptor/ARNT complex to the biotinylated DRE, and binding of the biotinylated DRE to the neutravidin bound to the ELISA plate.
After 2 hours the plate is washed 3 times with 400 μL TBS plus 0.02% Tween 20 per well per wash and 200 μL of the working dilution of anti-ARNT added to all wells. The plate is again incubated with gentle rocking at 30° C. for 1 hour. After 1 hour the plate is washed as before and a working dilution (1:4000) of anti-rabbit/alkaline phosphatase conjugate is added to all wells. The plate is incubated for a further 1 hour at 30° C. with gentle rocking and then washed as before. PNPP stock is added to each well (200 μL) and the plate is incubated for 1 hour at 30° C., at which time it is read at 405 nm in an ELISA plate reader and the milli O.D.'s of the wells are recorded.
TCM extracts were tested for their ability to inhibit the transformation of the Ah receptor.

Clc1cc2c(cc1Cl)Oc1c(Cl)c(Cl)c(Cl)c(Cl)c1O2 [1,2,3,4,7,8-HCDD]
Estimated IC50 (Syncitia Quantification), inhibition of HIV-induced cytopathicity [1]: No Inhibition Observed

Cc1cc(Cl)cc2c1oc1cc(Cl)cc(Br)c12 [1-bromo,6-methyl,3,8-dichlorodibenzofuran]
inhibition of syncytia formation / cytopathicity [1]: most effective compound and strongest Ah receptor antagonist | Estimated IC50 (Syncitia Quantification), inhibition of HIV-induced cytopathicity [1]: 100 nM

Clc1cc2oc3cc(Cl)c(Cl)cc3c2cc1Cl [2,3,7,8-TCDF]
Estimated IC50 (Syncitia Quantification), inhibition of HIV-induced cytopathicity [1]: 80 nM

Clc1ccc(-c2cc(Cl)c(Cl)c(Cl)c2)cc1Cl [3,3',4,4',5-PCB, 3,3',4,4',5-pentachlorobiphenyl]
inhibition of syncytia formation / cytopathicity [1]: correspondingly weaker activity | Estimated IC50 (Syncitia Quantification), inhibition of HIV-induced cytopathicity [1]: 100 nM

Clc1ccc(-c2ccc(Cl)c(Cl)c2)cc1Cl [3,3',4,4'-TCB, 3,3',4,4'-tetrachlorobiphenyl]
inhibition of syncytia formation / cytopathicity [1]: correspondingly weaker activity | Estimated IC50 (Syncitia Quantification), inhibition of HIV-induced cytopathicity [1]: 35 nM

CCCCc1cc(Cl)cc2c1oc1cc(Cl)cc(Cl)c12 [6-butyl,1,3,8-trichlorodibenzofuran]
Estimated IC50 (Syncitia Quantification), inhibition of HIV-induced cytopathicity [1]: 1500 nM

Clc1cc(Cl)c2c(c1)oc1c(C3CCCCC3)cc(Cl)cc12 [6-cyclohexyl,1,3,8-trichlorodibenzofuran]
Estimated IC50 (Syncitia Quantification), inhibition of HIV-induced cytopathicity [1]: 500 nM

CCc1cc(Cl)cc2c1oc1cc(Cl)cc(Cl)c12 [6-ethyl,1,3,8-trichlorodibenzofuran]
Estimated IC50 (Syncitia Quantification), inhibition of HIV-induced cytopathicity [1]: 1000 nM

CC(C)c1cc(Cl)cc2c1oc1cc(Cl)cc(Cl)c12 [6-isopropyl,1,3,8-trichlorodibenzofuran]
inhibition of syncytia formation / cytopathicity [1]: slightly less antagonistic activity | Estimated IC50 (Syncitia Quantification), inhibition of HIV-induced cytopathicity [1]: 100 nM

Cc1cc(Cl)cc2c1oc1cc(Cl)cc(Cl)c12 [6-methyl,1,3,8-trichlorodibenzofuran]
Estimated IC50 (Syncitia Quantification), inhibition of HIV-induced cytopathicity [1]: 200 nM

O=[N+]([O-])c1cc(Cl)cc2c1oc1cc(Cl)cc(Cl)c12 [6-nitro 1,3,8-trichlorodibenzofuran]
inhibition of syncytia formation / cytopathicity [1]: slightly less antagonistic activity | Estimated IC50 (Syncitia Quantification), inhibition of HIV-induced cytopathicity [1]: 500 nM

CCCc1cc(Cl)cc2c1oc1cc(Cl)cc(Cl)c12 [6-propyl,1,3,8-trichlorodibenzofuran]
Estimated IC50 (Syncitia Quantification), inhibition of HIV-induced cytopathicity [1]: 500 nM

CC(C)(C)c1cc(Cl)cc2c1oc1cc(Cl)cc(Cl)c12 [6-t-butyl,1,3,8-trichlorodibenzofuran]
Estimated IC50 (Syncitia Quantification), inhibition of HIV-induced cytopathicity [1]: 1500 nM

C=C1CC[C@@H]2[C@](C)(CO)[C@H](O)CC[C@@]2(C)[C@@H]1C/C=C1/C(=O)OC[C@H]1O [Andrographolide, andrographolide]
pharmacological activity (words) [2]: anti-tumor activity | pharmacological activity (words) ([2]; listed as andrographolide): anti-HIV effects; also recorded: anti-viral, anti-neoplastic and hepatoprotective properties | Test as agonist, Milli O.D at 405 (Ah receptor [3]; Table 11, 0.313 μg/mL): 49.5 Milli O.D | Test as agonist, Milli O.D at 405 (Ah receptor [3]; Table 11, 0.625 μg/mL): 43 Milli O.D | Test as agonist, Milli O.D at 405 (Ah receptor [3]; Table 11, 1.25 μg/mL): 59.5 Milli O.D | Test as agonist, Milli O.D at 405 (Ah receptor [3]; Table 11, 2.5 μg/mL): 54.5 Milli O.D | Test as agonist, Milli O.D at 405 (Ah receptor [3]; Table 11, 5 μg/mL): 55 Milli O.D | Test as agonist, Milli O.D at 405 (Ah receptor [3]; Table 11, 10 μg/mL): 47 Milli O.D | Test as antagonist, Milli O.D at 405 (Ah receptor [4]; Table 11, 0.313 μg/mL): 1457 Milli O.D | Test as antagonist, Milli O.D at 405 (Ah receptor [4]; Table 11, 0.625 μg/mL): 1402 Milli O.D | Test as antagonist, Milli O.D at 405 (Ah receptor [4]; Table 11, 1.25 μg/mL): 1437 Milli O.D | Test as antagonist, Milli O.D at 405 (Ah receptor [4]; Table 11, 2.5 μg/mL): 1416 Milli O.D | Test as antagonist, Milli O.D at 405 (Ah receptor [4]; Table 11, 5 μg/mL): 1421 Milli O.D | Test as antagonist, Milli O.D at 405 (Ah receptor [4]; Table 11, 10 μg/mL): 1164 Milli O.D | binding or interaction with the Ah receptor (words) (Ah receptor [4]): does not interact or inhibit the Ah receptor | binding or interaction with the Ah receptor (words) (Ah receptor [4]; listed as andrographolide): does not bind the Ah receptor; also recorded: non-Ah receptor binding

Clc1ccc2c(c1)Oc1ccccc1O2 [Extract 2-MCDD, 2-Monochlorodibenzo-p-dioxin]
inhibition of syncytia formation / cytopathicity [1]: incapable of blocking the cytopathic effect | Estimated IC50 (Syncitia Quantification), inhibition of HIV-induced cytopathicity [1]: No Inhibition Observed

CC1(C)CC[C@]2(C(=O)O)CC[C@]3(C)C(=CC[C@@H]4[C@@]5(C)CC[C@H](O)C(C)(C)[C@@H]5CC[C@]43C)[C@@H]2C1 [Oleanolic Acid]
Test as agonist, Milli O.D at 405 (Ah receptor [3]; Table 11, 0.313 μg/mL): 48 Milli O.D | Test as agonist, Milli O.D at 405 (Ah receptor [3]; Table 11, 0.625 μg/mL): 19.5 Milli O.D | Test as agonist, Milli O.D at 405 (Ah receptor [3]; Table 11, 1.25 μg/mL): 49 Milli O.D | Test as agonist, Milli O.D at 405 (Ah receptor [3]; Table 11, 2.5 μg/mL): 49.5 Milli O.D | Test as agonist, Milli O.D at 405 (Ah receptor [3]; Table 11, 5 μg/mL): 49.5 Milli O.D | Test as agonist, Milli O.D at 405 (Ah receptor [3]; Table 11, 10 μg/mL): 50 Milli O.D | Test as antagonist, Milli O.D at 405 (Ah receptor [4]; Table 11, 0.313 μg/mL): 1493 Milli O.D | Test as antagonist, Milli O.D at 405 (Ah receptor [4]; Table 11, 0.625 μg/mL): 1444 Milli O.D | Test as antagonist, Milli O.D at 405 (Ah receptor [4]; Table 11, 1.25 μg/mL): 1438 Milli O.D | Test as antagonist, Milli O.D at 405 (Ah receptor [4]; Table 11, 2.5 μg/mL): 1462 Milli O.D | Test as antagonist, Milli O.D at 405 (Ah receptor [4]; Table 11, 5 μg/mL): 1423 Milli O.D | Test as antagonist, Milli O.D at 405 (Ah receptor [4]; Table 11, 10 μg/mL): 1143 Milli O.D | binding or interaction with the Ah receptor (words) (Ah receptor [4]): non-Ah receptor binding

From patent publication US5833994A, “Use of the AH receptor and AH receptor ligands to treat or prevent cytopathicity of viral infection” (Paracelsian, Inc., priority 1997, dated 1998)
